From US9637473B2, “Acrylamide derivatives as antimalarial agents” (priority 2013, dated 2017)
Counter-ions that a name gives are not always drawn.

What follows are compounds tested on P. Falciparum NF54 (assay: Plasmodium falciparum in vitro assay ([3H]-hypoxanthine incorporation)). Details: Plasmodium falciparum, Erythrocyte, P. Falciparum NF54, erythrocytic stages in human red blood cells, 50% human serum.
Type: cell-based
Outline: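 This in vitro antimalarial assay used P. falciparum erythrocytic stages cultured in human erythrocytes and measured [3H]-hypoxanthine incorporation. Radioactivity on the dried filters, placed in plastic foil with 10 mL scintillation fluid, was counted in a Betaplate liquid scintillation counter. Sigmoidal inhibition curves built in Microsoft Excel gave the IC50.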

Row | IC50 | SMILES
1 | 171 nM | CN1CCC(N2CCC(N(Cc3ccc(Nc4ccncc4)nc3)C(=O)/C=C/c3ccc(C(F)(F)F)cc3)CC2)CC1 [Example 110, (E)-N-(1′-Methyl-[1,4′]bipiperidinyl-4-yl)-N-[6-(pyridin-4-ylamino)-pyridin-3-ylmethyl]-3-(4-trifluoromethyl-phenyl)-acrylamide]
2 | 354 nM | CC(C)N1CCC(N(Cc2cncc(N(C)c3ccccn3)c2)C(=O)/C=C/c2ccc(C(F)(F)F)cc2)CC1 [Example 140, (E)-N-(1-Isopropyl-piperidin-4-yl)-N-[5-(methyl-pyridin-2-yl-amino)-pyridin-3-ylmethyl]-3-(4-trifluoromethyl-phenyl)-acrylamide formate]
3 | 120 nM | CC(C)N1CCC[C@H](N(Cc2ccc(N(C)c3ccncc3)cc2)C(=O)/C=C/c2ccc(C(F)(F)F)cc2)C1 [Example 83, (E)-N-((S)-1-Isopropyl-piperidin-3-yl)-N-[4-(methyl-pyridin-4-yl-amino)-benzyl]-3-(4-trifluoromethyl-phenyl)-acrylamide]
4 | 30 nM | CC(C)CCN1CC2(CC(N(Cc3ccc(N(C)c4ccncc4)cc3)C(=O)/C=C/c3ccc(C(F)(F)F)cc3)C2)C1 [Example 75, (E)-N-(2-isopentyl-2-azaspiro[3.3]heptan-6-yl)-N-(4-(methyl(pyridin-4-yl)amino)benzyl)-3-(4-(trifluoromethyl)phenyl)acrylamide]
5 | 42 nM | Cc1cnccc1Nc1cccc(CN(C(=O)/C=C/c2ccc(C(F)(F)F)cc2)C2CCN(C(C)C)CC2)n1 [Example 130, (E)-N-(1-Isopropyl-piperidin-4-yl)-N-[6-(3-methyl-pyridin-4-ylamino)-pyridin-2-ylmethyl]-3-(4-trifluoromethyl-phenyl)-acrylamide formate]
6 | 25 nM | CN(c1ccncc1)c1ccc(CN(C(=O)/C=C/c2ccc(C(F)(F)F)cc2)[C@H]2CC[C@@H](N3CCCC3)CC2)cc1 [Example 192, (±)-cis-(E)-N-[4-(Methyl-pyridin-4-yl-amino)-benzyl]-N-(4-pyrrolidin-1-yl-cyclohexyl)-3-(4-trifluoromethyl-phenyl)-acrylamide]
7 | 43 nM | Cc1cc(Nc2cccc(CN(C(=O)/C=C/c3ccc(C(F)(F)F)cc3)C3CCN(C(C)C)CC3)c2)ccn1 [Example 122, (E)-N-(1-Isopropyl-piperidin-4-yl)-N-[3-(2-methyl-pyridin-4-ylamino)-benzyl]-3-(4-trifluoromethyl-phenyl)-acrylamide formate]
8 | 40 nM | CN(c1ccncc1)c1ccc(CN(CC2CCN(C3CCCC3)CC2)C(=O)/C=C/c2ccc(C(F)(F)F)cc2)cc1 [Example 188, (E)-N-(1-Cyclopentyl-piperidin-4-ylmethyl)-N-[4-(methyl-pyridin-4-yl-amino)-benzyl]-3-(4-trifluoromethyl-phenyl)-acrylamide]
9 | 21 nM | Cc1cnccc1Nc1cccc(CN(C(=O)/C=C/c2ccc(C(F)(F)F)cc2)C2CCN(C(C)C)CC2)c1 [Example 123, (E)-N-(1-Isopropyl-piperidin-4-yl)-N-[3-(3-methyl-pyridin-4-ylamino)-benzyl]-3-(4-trifluoromethyl-phenyl)-acrylamide formate]
10 | 296 nM | CN(c1ccncc1)c1ccc(CN(C(=O)/C=C/c2ccc(C(F)(F)F)cc2)C2CCN(Cc3ncccn3)CC2)cc1 [Example 29, (E)-N-[4-(Methyl-pyridin-4-yl-amino)-benzyl]-N-(1-pyrimidin-2-ylmethyl-piperidin-4-yl)-3-(4-trifluoromethyl-phenyl)-acrylamide]
11 | 138 nM | O=C(/C=C/c1ccc(C(F)(F)F)cc1)N(Cc1ccc(Nc2ccnc3cc(C(F)(F)F)ccc23)cc1)C1CCN(C2CCCC2)CC1 [Example 90, (E)-N-(1-Cyclopentyl-piperidin-4-yl)-3-(4-trifluoromethyl-phenyl)-N-[4-(7-trifluoromethyl-quinolin-4-ylamino)-benzyl]-acrylamide]

Row | SMILES | IC50
12 | Cc1cccc(/C=C/C(=O)N(Cc2ccc(N(C)c3ccncc3)cc2)C2CCN(Cc3ccccc3)CC2)c1 [Example 159, (E)-N-(1-Benzyl-piperidin-4-yl)-N-[4-(methyl-pyridin-4-yl-amino)-benzyl]-3-m-tolyl-acrylamide] | 195 nM
